# From patent US9220771B2, “Peptide for use in the treatment of breast cancer and/or bone metastases” (MERCK PATENT GMBH, priority 2010, dated 2015)
# Tests used:
# [1] = test system: MDA-MB-231 breast cancer bone metastases; assay: Histology / immunofluorescence of experimental breast cancer bone metastases; format: in vivo, nude rats (RNU strain); conditions: after 4 weeks treatment with cilengitide; control rats 8.8 μm; p<0.01
# Experimental: At the end of the observation period lower limbs of each animal are amputated and muscular tissue removed. Bones with surrounding soft tissue tumors are stored in 70% ethanol and embedded in a methylmethacrylat-based compound (Technovit® 9100 NEU, Heraeus Kulzer, Hanau, Germany) according to the instructions of the manufacturer. 5 μm-thick sections are cut (Microm HM340e microtome; Thermo Scientific, Waltham, Mass.), mounted on SuperFrost Plus microscope slides and dried overnight at 60° C. Additional freshly removed soft tissue tumors are embedded in optimum cutting temperature compound (OCT, TissueTec, Sakura, Japan) and stored at −80° C. […] Mean positive area fractions of SMA and collagen IV (in percent) as well as mean vessel diameters (in μm) are determined from 4 representative animals of each group analyzing 10 fields of view chosen randomly from each rat using Analysis Software (cell^F; Olympus Soft Imaging Solutions, Münster, Germany). […]
# For light microscopical analysis, sections are stained with Mayer's hematoxylin (Carl Roth, Karlsruhe, Germany) and eosin (Merck, Darmstadt, Germany), mounted using Eukitt mounting medium (O. Kindler, Freiburg, Germany) and analyzed using a microscope (DM LB; Leica, Wetzlar, Germany) equipped with a digital camera (DFC 320; Leica, Wetzlar, Germany). […]
# [2] = test system: U251 human glioblastoma cells; assay: Rat orthotopic glioblastoma model, radiotherapy and cilengitide scheduling, survival; format: in vivo, NIH rnu nude rats; conditions: t-4 and t-8 h groups, cilengitide 4 mg/kg + 25 Gy
# Experimental: NIH rnu nude rats are anaesthetized, restrained, and injected intracerebrally 1 mm retro orbitally, 3 mm to the right of the bregma and at a depth of 2.5 mm with 5×10E5 U251 human glioblastoma cells suspended in 10 ul of culture medium, using a #2701 Hamilton syringe fitted with a 26 gauge needle, essentially as previously described (Engebraaten et al., 1999). After 14 days, cilengitide (4 mg/kg) is given as an intraperitoneal bolus in PBS, at various time (8 h, 4 h, 2 h, 1 h) prior to a single treatment with single, collimated, dorsal-ventral beam of 6 MV x-rays, so that 95-100% of the central axis dose of 25 Gy hit the tumor volume (Kim et al., 1999). Each of the 7 subsequent days the animals also received an identical i.p. bolus of cilengitide. The animals are maintained under ad libitum food and drink until they become moribund, or are sampled for tissue analysis (in the t-4 and t-8 h groups, where the animals are healthy past 230 days post tumor injection). A Kaplan-Meier survival curve is calculated and plotted (FIG. 7) from the raw data (Table 2). All animals in the RT monotherapy group died by 120 d.
# [3] = test system: Patients With Newly Diagnosed Glioblastoma (GBM); assay: Phase I/IIa trial of Cilengitide and temozolomide with concomitant radiotherapy; format: in vivo, human
# Experimental: Purpose: To evaluate safety, toxicity, and efficacy of the combination of the cyclic RGD pentapeptide Cilengitide (=cyclo-(Arg-Gly-Asp-DPhe-NMe-Val)), an inhibitor of integrins αvβ3 and αvβ5, in addition to standard temozolomide (TMZ) and radiotherapy (RT).
# Patients and methods: Fifty-two pts (PS 0-1: 92%, 2: 8%; median age 57 yrs) after biopsy (n=9/17%) or tumor resection (n=43/83%) were treated with standard TMZ/RT (Stupp et al. NEJM 2005). In addition Cilengitide (500 mg i.v., 2×/week) was started one week before TMZ/RT and given throughout for the duration of chemotherapy or until progression. Primary endpoint was progression free survival rate at 6 months (target: 65%). Patients were followed with MRI every 2 months. Histopathologic diagnosis and MRI imaging were independently reviewed, MGMT promotor methylation status was assessed in 45 (86.5%) pts.
# [4] = test system: MDA-MB468 human breast tumour cells; assay: Study 007: MDA-MB-468 orthotopic primary tumor growth; format: in vivo, female BALB/c nu/nu mice; conditions: all three dosing groups (75, 150 or 300 mg/kg), daily s.c.; Vehicle Control higher than 350 mm^3
# Experimental: MDA-MB468 human breast tumour cells were orthotopically inoculated into the third mammary fat pad of female BALB/c nu/nu mice. The mice were randomised into groups when the tumors reached a size of approximately 40 mm^3.
# The mice in each group received treatment with either Vehicle Control (Placebo) or EMD 121974 (75, 150 or 300 mg/kg) by daily subcutaneous injection. Body weight and tumour volume measurements were made for all mice three times per week.
# [5] = Cilengitide 500 mg i.v. 2x/week with TMZ/RT, of 52 patients
compound,measurement,setting,value
"CC(C)[C@H]1C(=O)N[C@@H](CCCN=C(N)N)C(=O)NCC(=O)N[C@@H](CC(=O)O)C(=O)N[C@H](Cc2ccccc2)C(=O)N1C [Cilengitide, cyclo-(Arg-Gly-Asp-DPhe-NMeVal)]",mean vessel diameter in bone metastases,[1],6.6 μm
same,time animals are healthy post tumor injection,[2],> 230 days
same,treatment related non-hematologic grade 3 toxicities,"[3]; Cilengitide 500 mg i.v. 2x/week with TMZ/RT, 3/52 patients",5.7%
same,"grade 3 constitutional symptoms (asthenia, fatigue, anorexia)",[3]; [5],3 n
same,grade 3 deep venous thrombosis and pulmonary embolism,[3]; [5],1 n
same,grade 3 elevated liver function tests,[3]; [5],1 n
same,tolerability of the combination,[3]; Cilengitide and TMZ/RT,well tolerated
same,tumour volume on day 60,[4],below 200 mm^3
